The source of these data is US20230265116A1, “DEGRADATION OF (EGFR) BY CONJUGATION OF EGFR INHIBITORS WITH E3 LIGASE LIGAND AND METHODS OF USE” (BEIGENE, LTD., priority 2020, published 2023).

Assay [1] addresses T1, EGFR L858R/T790M/C797S (BaF3-LTC cells) (Homo sapiens, UniProt P00533, C797S/L858R/T790M).
T1 construct: expressed in transfected cells; host or cells: BaF3
The assay can be described thus: EGFR degradation HTRF assay, BaF3-LTC cells. In kind it is cell-based. On the procedure: (§1) BaF3 WT(wild type), BaF3-LTC(L858R/T790M/C797S) and BaF3-DTC(Del19/T790M/C797S) cells are treated with compounds diluted in 0.2% DMSO cell culture medium and incubate for 16h, 37° C., 5% CO2, H1975-#36, H1975-#28, H1975-#23 and HCC827 cells are treated with compounds diluted in 0.2% DMSO cell culture medium on day 2, incubate for 16h, 37° C., 5% CO2.the final concentriation of compounds in all assay is start with 10 uM, 5-fold dilution, total 8 doses were included.
(§2) After 16h treatment, add HTRF lysis buffer to each well; seal the plate and incubate 1 hour at room temperature on a plate shaker; Once the cells are lysed, 16 μL of cell lysate are transferred to a PE 384-well HTRF detection plate; 4 μL of pre-mixed HTRF antibodies are added to each well; Cover the plate with a plate sealer, spin 1000 rpm for 1 min, Incubate overnight at room temperature; Read on BMG PheraStar with HTRF protocol (337 nm-665 nm-620 nm).
(§3) The inhibition (degradation) percentage of the compound was calculated by the following equation: Inhibition percentage of Compound=100-100×(Signal-low control)/(High control-low control), wherein signal=each test compound group
(§4) High control=Cell group with added DMSO and without compound, indicating microplate readings without EGFR degradation;
(§5) Dmax is the maximum percentage of inhibition (degradation).
(§6) The IC50 (DC50) value of a compound can be obtained by fitting the following equation
(§7) Y=Bottom+(TOP−Bottom)/(1+((IC50/X)^hillslope))
(§8) Wherein, X and Y are known values, and IC50, Hillslope, Top and Bottom are the parameters obtained by fitting with software. Y is the inhibition percentage (calculated from the equation), X is the concentration of the compound; IC50 is the concentration of the compound when the 50% inhibition is reached. The smaller the IC50 value is, the stronger the inhibitory ability of the compound is. Vice versa, the higher the IC50 value is, the weaker the inhibitory ability of the compound is; Hillslope represents the slope of the fitted curve, generally around 1*; Bottom represents the minimum value of the curve obtained by data fitting, which is generally 0%±20%; Top represents the maximum value of the curve obtained by data fitting, which is generally 100%±20%. The experimental data were fitted by calculating and analyzing with Dotmatics data analysis software.

Assay [2] deals with EGFR Del19/T790M/C797S (H1975-clone #28). The assay is described as follows: EGFR degradation HTRF assay, H1975-clone #28 DTC cells. In kind it is cell-based. On the procedure: H1975-clone #28(Del19/T790M/C797S) and H1975-clone #23(Del19/C797S). EGFR-Del19/T790M/C797S and EGFR-Del19/C797S were stably expressed in H1975 cell lines by lentivirus-mediated over-expression, respectively. The EGFR over-expressed cells then underwent gene knockout, in which the EGFR targeting sgRNA was designed to only target the endogenous EGFR copies and preserve the exogenous EGFR copies. Followed by the gene knockout, the edited H1975 cells were seeded in 96 well plates at the concentration of 1 cell/well, cultured for about 2 weeks to allow single clones formation. The formed clones were screened by DNA sequencing and whole exon sequencing analysis for the desired edition. H1975-clone #28 and H1975-clone #23 were finally confirmed as homozygous Del19/T790M/C797S EGFR and Del19/C797S EGFR clones, respectively.
as §1, §2, §3, §4, §5, §6, §7, §8
(In general: Time-resolved FRET reads energy transfer from a long-lived donor to a nearby acceptor.)

Setting [3] is: BaF3-LTC cells; EGFR degradation, IC50 (DC50) from curve fit; read-out: DC50(nM) BaF3-LTC.
Where [4] appears, read: BaF3-LTC cells; maximum percentage of inhibition (degradation); read-out: Dmax (%) BaF3-LTC.
Where [5] appears, read: H1975 # 28 DTC cells; EGFR degradation, IC50 (DC50) from curve fit; read-out: DC50(nM) H1975 # 28 DTC.
Where [6] appears, read: H1975 # 28 DTC cells; maximum percentage of inhibition (degradation).
[7] abbreviates: read-out: DC50(nM) BaF3-LTC; BaF3-LTC cells; EGFR degradation, IC50 (DC50) from curve fit.
[8] abbreviates: read-out: Dmax (%) BaF3-LTC, BaF3-LTC cells; maximum percentage of inhibition (degradation).
Setting [9] is: read-out: DC50(nM) H1975 # 28 DTC; H1975 # 28 DTC cells; EGFR degradation, IC50 (DC50) from curve fit.

One may read the DC50 as the midpoint of the concentration-degradation curve. Broadly, the Dmax is the largest share of the target that was removed.

Like-named read-outs stand apart in the source and are kept apart here.

T1 sequence (P00533 25-1210 T790M/C797S/L858R): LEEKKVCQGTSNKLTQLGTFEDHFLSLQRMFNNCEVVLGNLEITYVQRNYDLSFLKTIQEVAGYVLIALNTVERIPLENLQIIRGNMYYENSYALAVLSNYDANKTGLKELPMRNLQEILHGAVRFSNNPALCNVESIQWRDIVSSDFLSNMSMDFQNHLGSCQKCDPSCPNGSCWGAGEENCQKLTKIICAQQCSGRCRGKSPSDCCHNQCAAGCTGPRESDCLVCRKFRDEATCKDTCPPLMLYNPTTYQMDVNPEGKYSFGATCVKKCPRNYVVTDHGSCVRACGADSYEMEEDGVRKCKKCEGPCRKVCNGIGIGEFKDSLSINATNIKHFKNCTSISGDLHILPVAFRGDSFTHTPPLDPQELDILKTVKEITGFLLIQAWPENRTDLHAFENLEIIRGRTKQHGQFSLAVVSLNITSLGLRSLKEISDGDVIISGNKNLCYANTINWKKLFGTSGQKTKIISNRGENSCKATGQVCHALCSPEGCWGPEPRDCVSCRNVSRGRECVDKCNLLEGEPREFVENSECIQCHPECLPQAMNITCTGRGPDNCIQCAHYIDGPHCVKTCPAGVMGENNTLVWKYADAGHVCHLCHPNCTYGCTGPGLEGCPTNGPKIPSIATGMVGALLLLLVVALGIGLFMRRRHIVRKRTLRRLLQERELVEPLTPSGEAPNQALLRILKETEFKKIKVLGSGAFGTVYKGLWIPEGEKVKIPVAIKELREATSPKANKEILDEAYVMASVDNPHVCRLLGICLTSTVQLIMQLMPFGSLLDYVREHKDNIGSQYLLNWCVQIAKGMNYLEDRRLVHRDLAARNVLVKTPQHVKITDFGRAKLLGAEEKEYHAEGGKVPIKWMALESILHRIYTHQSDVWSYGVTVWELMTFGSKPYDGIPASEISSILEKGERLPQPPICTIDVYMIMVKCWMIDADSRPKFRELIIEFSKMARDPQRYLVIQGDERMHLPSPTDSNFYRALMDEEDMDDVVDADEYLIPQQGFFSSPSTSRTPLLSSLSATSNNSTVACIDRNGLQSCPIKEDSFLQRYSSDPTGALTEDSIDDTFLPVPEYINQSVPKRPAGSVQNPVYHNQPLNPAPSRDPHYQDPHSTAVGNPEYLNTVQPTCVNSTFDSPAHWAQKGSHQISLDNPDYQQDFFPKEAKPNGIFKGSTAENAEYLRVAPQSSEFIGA

With `CCc1cc(Nc2ncc(Br)c(Nc3ccc4nc(C)ccc4c3P(C)(C)=O)n2)c(OC)cc1N1CCC(N2CCN(C(=O)CC3CN(c4cc(F)c([C@H]5CCC(=O)NC5=O)c(F)c4)C3)CC2)CC1` (single isomer, unassigned) [Example 573], the DC50 in assay [1] (setting [3]) was 3.36 nM; in assay [2] (setting [5]), 0.751 nM. Further, the Dmax in assay [1] (setting [4]) worked out at 97.7%. The “Dmax (%) H1975 # 28 DTC” value in assay [2] (setting [6]) was determined as 81.91%.

Turning to `CCc1ccc2c(P(C)(C)=O)c(Nc3nc(Nc4cc(CC)c(N5CCC(N6CCN(CCc7cc(C)cc8c7oc(=O)n8C7CCC(=O)NC7=O)CC6)CC5)cc4OC)ncc3Br)ccc2n1` (stereo not drawn) [Example 442, 3-(7-(2-(4-(1-(4-((5-bromo-4-((5-(dimethylphosphoryl)-2-ethylquinolin-6-yl)amino)pyrimidin-2-yl)amino)-2-ethyl-5-methoxyphenyl)piperidin-4-yl)piperazin-1-yl)ethyl)-5-methyl-2-oxobenzo[d]oxazol-3(2H)-yl)piperidine-2,6-dione], the DC50 in assay [1] (setting [3]) was determined as 6.53 nM; in assay [2] (setting [5]), 1.05 nM. The Dmax in assay [1] (setting [4]) was 87%. For the same compound, in assay [2] (setting [6]), the “Dmax (%) H1975 # 28 DTC” value was 81.11%.

Consider `CCc1ccc2c(P(C)(C)=O)c(Nc3nc(Nc4cc(CC)c(N5CCC(N6CCN(CCc7cc(F)cc8c7oc(=O)n8C7CCC(=O)NC7=O)CC6)CC5)cc4OC)ncc3Br)ccc2n1` (stereo not drawn) [Example 443, 3-(7-(2-(4-(1-(4-((5-bromo-4-((5-(dimethylphosphoryl)-2-ethylquinolin-6-yl)amino)pyrimidin-2-yl)amino)-2-ethyl-5-methoxyphenyl)piperidin-4-yl)piperazin-1-yl)ethyl)-5-fluoro-2-oxobenzo[d]oxazol-3(2H)-yl)piperidine-2,6-dione], for which the DC50 was 14.6 nM in assay [1] (setting [3]) and 0.894 nM in assay [2] (setting [5]). Further, the Dmax in assay [1] (setting [4]) was 81.4%. In addition, the “Dmax (%) H1975 # 28 DTC” value in assay [2] (setting [6]) is listed as 82.38%.

In the case of `CCc1ccc2c(P(C)(C)=O)c(Nc3nc(Nc4cc(CC)c(N5CCC(N6CCN(CCc7c(F)ccc8c7oc(=O)n8C7CCC(=O)NC7=O)CC6)CC5)cc4OC)ncc3Br)ccc2n1` (stereo not drawn) [Example 444, 3-(7-(2-(4-(1-(4-((5-bromo-4-((5-(dimethylphosphoryl)-2-ethylquinolin-6-yl)amino)pyrimidin-2-yl)amino)-2-ethyl-5-methoxyphenyl)piperidin-4-yl)piperazin-1-yl)ethyl)-6-fluoro-2-oxobenzo[d]oxazol-3(2H)-yl)piperidine-2,6-dione], the DC50 in assay [1] (setting [3]) is 6.28 nM; in assay [2] (setting [5]), 1.19 nM. Moreover, in assay [1] (setting [4]), the Dmax came out at 79.4%. The “Dmax (%) H1975 # 28 DTC” value in assay [2] (setting [6]) stood at 79.58%.

Consider `CCOc1cc(N2CCC(N3CCN(C(=O)[C@@H]4CCN(c5cccc6c5oc(=O)n6C5CCC(=O)NC5=O)C4)CC3)CC2)c(CC)cc1Nc1ncc(Br)c(Nc2ccc3nc(CC)ccc3c2P(C)(C)=O)n1` (stereo partly drawn) [Example 445, 3-(7-((R)-3-(4-(1-(4-((5-bromo-4-((5-(dimethylphosphoryl)-2-ethylquinolin-6-yl)amino)pyrimidin-2-yl)amino)-5-ethoxy-2-ethylphenyl)piperidin-4-yl)piperazine-1-carbonyl)pyrrolidin-1-yl)-2-oxobenzo[d]oxazol-3(2H)-yl)piperidine-2,6-dione], for which the DC50 in assay [1] (setting [7]) worked out at 5.24 nM; in assay [2] (setting [9]) it was 0.877 nM. The Dmax in assay [1] (setting [8]) was found to be 87.7%. The “Dmax (%) H1975 # 28 DTC” value in assay [2] (setting [6]) stood at 79.2%.

For the compound `CCc1ccc2c(P(C)(C)=O)c(Nc3nc(Nc4cc(CC)c(N5CCC(N6CCN(C(=O)C7CN(c8cc(F)cc9c8oc(=O)n9C8CCC(=O)NC8=O)C7)CC6)CC5)cc4OC)ncc3Br)ccc2n1` (stereo not drawn) [Example 447, 3-(7-(3-(4-(1-(4-((5-bromo-4-((5-(dimethylphosphoryl)-2-ethylquinolin-6-yl)amino)pyrimidin-2-yl)amino)-2-ethyl-5-methoxyphenyl)piperidin-4-yl)piperazine-1-carbonyl)azetidin-1-yl)-5-fluoro-2-oxobenzo[d]oxazol-3(2H)-yl)piperidine-2,6-dione], the DC50 turned out to be 2.27 nM in assay [1] (setting [7]) and 0.526 nM in assay [2] (setting [9]). Moreover, the Dmax in assay [1] (setting [8]) turned out to be 83.2%. For the same compound, in assay [2] (setting [6]), the “Dmax (%) H1975 # 28 DTC” value came out at 77.96%.

For the compound `CCc1ccc2c(P(C)(C)=O)c(Nc3nc(Nc4cc(CC)c(N5CCC(N6CCN(CC7CN(c8cccc9c8oc(=O)n9C8CCC(=O)NC8=O)C7)CC6)CC5)cc4OC)ncc3Br)ccc2n1` (stereo not drawn) [Example 448, 3-(7-(3-((4-(1-(4-((5-bromo-4-((5-(dimethylphosphoryl)-2-ethylquinolin-6-yl)amino)pyrimidin-2-yl)amino)-2-ethyl-5-methoxyphenyl)piperidin-4-yl)piperazin-1-yl)methyl)azetidin-1-yl)-2-oxobenzo[d]oxazol-3(2H)-yl)piperidine-2,6-dione], the DC50 in assay [1] (setting [3]) came to 6.92 nM; in assay [2] (setting [5]), 0.962 nM. In assay [1] (setting [4]), the Dmax is 89.5%. Also, the “Dmax (%) H1975 # 28 DTC” value in assay [2] (setting [6]) is listed as 83.19%.

As to `CCc1ccc2c(P(C)(C)=O)c(Nc3nc(Nc4cc(CC)c(N5CCC(N6CCN(CC7CN(c8cc(F)cc9c8oc(=O)n9C8CCC(=O)NC8=O)C7)CC6)CC5)cc4OC)ncc3Br)ccc2n1` (stereo not drawn) [Example 449, 3-(7-(3-((4-(1-(4-((5-bromo-4-((5-(dimethylphosphoryl)-2-ethylquinolin-6-yl)amino)pyrimidin-2-yl)amino)-2-ethyl-5-methoxyphenyl)piperidin-4-yl)piperazin-1-yl)methyl)azetidin-1-yl)-5-fluoro-2-oxobenzo[d]oxazol-3(2H)-yl)piperidine-2,6-dione], the DC50 was 2.99 nM in assay [1] (setting [3]) and 0.937 nM in assay [2] (setting [5]). In addition, the Dmax in assay [1] (setting [4]) was 89.9%. In assay [2] (setting [6]), the “Dmax (%) H1975 # 28 DTC” value is recorded as 85.59%.

`CCc1ccc2c(P(C)(C)=O)c(Nc3nc(Nc4cc(CC)c(N5CCC(N6CCN(C(=O)C7CCN(c8cccc9c8oc(=O)n9C8CCC(=O)NC8=O)CC7)CC6)CC5)cc4OC)ncc3Br)ccc2n1` (stereo not drawn) [Example 450, 3-(7-(4-(4-(1-(4-((5-bromo-4-((5-(dimethylphosphoryl)-2-ethylquinolin-6-yl)amino)pyrimidin-2-yl)amino)-2-ethyl-5-methoxyphenyl)piperidin-4-yl)piperazine-1-carbonyl)piperidin-1-yl)-2-oxobenzo[d]oxazol-3(2H)-yl)piperidine-2,6-dione]: the DC50 in assay [1] (setting [7]) stood at 2.68 nM; in assay [2] (setting [9]) it was 0.616 nM. Besides, the Dmax in assay [1] (setting [8]) came to 87.7%. In addition, the “Dmax (%) H1975 # 28 DTC” value in assay [2] (setting [6]) was found to be 77%.

Turning to `CCc1cc(Nc2ncc(Br)c(Nc3ccc4nc(C)ccc4c3P(C)(C)=O)n2)c(OC2CC2)cc1N1CCC(N2CCN(CCc3cc(F)c([C@H]4CCC(=O)NC4=O)c(F)c3)CC2)CC1` [Example 459, (R)-3-(4-(2-(4-(1-(4-((5-bromo-4-((5-(dimethylphosphoryl)-2-methylquinolin-6-yl)amino)pyrimidin-2-yl)amino)-5-cyclopropoxy-2-ethylphenyl)piperidin-4-yl)piperazin-1-yl)ethyl)-2,6-difluorophenyl)piperidine-2,6-dione], in assay [2] (setting [5]), the DC50 is 0.851 nM. Also, the “Dmax (%) H1975 # 28 DTC” value in assay [2] (setting [6]) came out at 86.08%.

`CCc1cc(Nc2ncc(Br)c(Nc3ccc4nc(C)ccc4c3P(C)(C)=O)n2)c(OC)cc1N1CCC(N2CCN(C(=O)[C@@H]3CCN(c4ccc([C@H]5CCC(=O)NC5=O)cc4)C3)CC2)CC1` [Example 569, (R)-3-(4-((R)-3-(4-(1-(4-((5-bromo-4-((5-(dimethylphosphoryl)-2-methylquinolin-6-yl)amino)pyrimidin-2-yl)amino)-2-ethyl-5-methoxyphenyl)piperidin-4-yl)piperazine-1-carbonyl)pyrrolidin-1-yl)phenyl)piperidine-2,6-dione]: the Dmax in assay [1] (setting [4]) came to 86.5%.
